Reference: PMC4026384, “Antibacterial Activity of THAM Trisphenylguanide against Methicillin-Resistant Staphylococcus aureus” (PLoS ONE, 2014)
Converted amounts (≈) assume the structure as drawn. Where two headings read alike, the source gives them in different places.

Tests used:
E. coli = assay: Time-to-kill (kill curve) assay; assay type: cell-based, Escherichia coli
Experimental: Bacteria were cultured to mid-log phase (OD600 ∼0.4) in LB media with shaking and then diluted to approximately 10^4 to 10^5 CFU/mL. Bacteria were then treated with compound at the MIC, 2×MIC, and 4×MIC (as determined by the MIC assays). Over the course of 24 hours, bacteria were incubated at 37°C and aliquots removed at various time intervals, diluted, and plated on LB agar. Plated bacteria were incubated overnight at 37°C and CFU/mL were calculated for each time interval.

S. aureus RN4220 = assay: Bacterial viability assay; assay type: cell-based, Staphylococcus aureus; settings: Staphylococcus aureus, 1 h, one hour in PBS, CFU, ± SEM
Experimental: (§1) Supplementary file pone.0097742.s003.doc: Table S1 Bacterial viability assays. Bacteria were grown at 37°C to mid-log phase (OD600 ∼0.4). The bacteria were diluted to approximately 10^4 to 10^5 colony forming units (CFU) per milliliter and added to a solution of phosphate buffered saline (PBS, 16 mM phosphate, 0.14 M NaCl, pH 7.2) containing the compound at varied concentrations. Samples were incubated at 37°C for one hour and then plated on Luria Bertani (LB) agar at appropriate dilutions in PBS. The plates were incubated overnight at 37°C and colonies enumerated the following day. IC50s were calculated from graphs of CFU as a function of compound concentration. Chlorhexidine was used as a positive control. Included are those guanide (G), biguanide (BG), phenylguanide (ΦG) compounds that had some antibacterial activity in an initial screen at 30 and 100 µM, as well as their and parent amines. Compounds synthesized from 1,4-butanediamine, 1,6-hexanediamine, trisethylaminomelamine, trisbutylaminomelamine, and the dendrimer PAMAM (G0) were not active against E. coli, P aeruginosa, or S. aureus so they were not tested against the remaining bacteria (data not shown). (DOC) Click here for additional data file.
as §1, with “Bacterial” for “Supplementary file pone.0097742.s003.doc: Table S1 Bacterial”, “~0.4).” for “∼0.4).”, “μM,” for “µM,”, “shown).” for “shown). (DOC) Click here for additional data file.”

[1] = Cell toxicity assay (MTS); assay type: cell-based, human; settings: human, MTS assay, concentration which killed 50% of the cells
Experimental: The HaCaT cell line was grown in Epilife medium (MEPI500Ca) with human keratinocyte growth supplement (Invitrogen, San Diego, CA). Both types of cells were harvested using Tryspin/EDTA and diluted to 1×10^5 cells per well in a 96-well plate. Ten concentrations covering five orders of magnitude were tested with six replicates per concentration. […] MTS/PMS solution (Promega, Madison, WI) was added to the wells and absorbance was measured at 490 nm two to four hours later. Data was analyzed using GraphPad Prism version 5.0 (GraphPad Software, La Jolla, CA) using a variable slope inhibition dose response curve.

A. baumannii ATCC 19606 = assay: Bacterial viability assay; assay type: cell-based, Acinetobacter baumannii; settings: Acinetobacter baumannii, ATCC19606, 1 h, one hour in PBS, CFU, ± SEM
Experimental: (§2) Supplementary file pone.0097742.s003.doc: Table S1 Bacterial viability assays. Bacteria were grown at 37°C to mid-log phase (OD600 ∼0.4). The bacteria were diluted to approximately 10^4 to 10^5 colony forming units (CFU) per milliliter and added to a solution of phosphate buffered saline (PBS, 16 mM phosphate, 0.14 M NaCl, pH 7.2) containing the compound at varied concentrations. Samples were incubated at 37°C for one hour and then plated on Luria Bertani (LB) agar at appropriate dilutions in PBS. The plates were incubated overnight at 37°C and colonies enumerated the following day. IC50s were calculated from graphs of CFU as a function of compound concentration. Chlorhexidine was used as a positive control. […] (DOC) Click here for additional data file.
(§3) Bacterial viability assays. Bacteria were grown at 37°C to mid-log phase (OD600 ~0.4). The bacteria were diluted to approximately 10^4 to 10^5 colony forming units (CFU) per milliliter and added to a solution of phosphate buffered saline (PBS, 16 mM phosphate, 0.14 M NaCl, pH 7.2) containing the compound at varied concentrations. Samples were incubated at 37°C for one hour and then plated on Luria Bertani (LB) agar at appropriate dilutions in PBS. The plates were incubated overnight at 37°C and colonies enumerated the following day. IC50s were calculated from graphs of CFU as a function of compound concentration. Chlorhexidine was used as a positive control.

[2] = system: A. baumannii ATCC BAA1605; assay: Bacterial viability assay; assay type: cell-based, Acinetobacter baumannii; settings: Acinetobacter baumannii, ATCCBAA1605, 1 h, one hour in PBS, CFU, ± SEM
Experimental: as §2, §3

E. coli K91 = assay: Bacterial viability assay; assay type: cell-based, Escherichia coli; settings: Escherichia coli, 1 h, one hour in PBS, CFU, ± SEM
Experimental: as §2, §3

E. faecalis MSU#10 = assay: Bacterial viability assay; assay type: cell-based, Enterococcus faecalis; settings: Enterococcus faecalis, 1 h
Experimental: as §2, §3

E. faecalis V583 = assay: Bacterial viability assay; assay type: cell-based, Enterococcus faecalis; settings: Enterococcus faecalis, 1 h, one hour in PBS, CFU, ± SEM
Experimental: as §2, §3

MRSA USA300 = assay: Bacterial viability assay; assay type: cell-based, Staphylococcus aureus; settings: Staphylococcus aureus, 1 h, one hour in PBS, CFU, ± SEM
Experimental: as §2, §3

P. aeruginosa PA01 = assay: Bacterial viability assay; assay type: cell-based, Pseudomonas aeruginosa; settings: Pseudomonas aeruginosa, 1 h, one hour in PBS, CFU, ± SEM
Experimental: as §2, §3

[3] = MDA-MB-231 breast cancer cells (ATCC HTB-26), MDA-231

For `[H]/N=C(\N/C(=N/[H])NCCCCCCNC(=N)NC(=N)Nc1ccc(Cl)cc1)Nc1ccc(Cl)cc1` [Chlorhexidine, chlorhexidine, reference compound], the “time after which no viable cells remained” value (E. coli; 2 mg/L) was 6 h, the “reduction in CFU/mL” value (E. coli; 2 mg/L, within 4 hours of treatment) was over 3 log and the IC50 (S. aureus RN4220) was 0.86 ± 0.21 µM. The CC50 ([1]; HaCaT keratinocytes) was 1.9 µg/mL (≈ 3.76 µM), the CC50 [1, 3] was 2.6 µg/mL (≈ 5.14 µM) and the IC50 (A. baumannii ATCC 19606) was 1.3 ± 0.2 µM. The IC50 [2] was 0.78 ± 0.31 µM, the IC50 (E. coli K91) was 1.7 ± 0.6 µM and the IC50 (E. faecalis MSU#10) was 14 ± 6 µM. For the same compound, the IC50 (E. faecalis V583) was 16 ± 6 µM, the IC50 (MRSA USA300) was 13 µM and the IC50 (P. aeruginosa PA01) was 2.6 ± 0.5 µM.
With `N=C(NCCCCCCNc1nc(NCCCCCCNC(=N)Nc2ccccc2)nc(NCCCCCCNC(=N)Nc2ccccc2)n1)Nc1ccccc1` [THAM-3ΦG, Trishexylaminomelamine trisphenylguanide] the “time to kill all the cells” value (E. coli; 4×MIC (32 mg/L)) was 24 h, the “reduction in CFU/mL” value (E. coli; 4×MIC (32 mg/L), only after 4 hours of treatment) was over 3 log and the IC50 (S. aureus RN4220) was 1.7 ± 0.9 µM. It also gave a CC50 ([1]; HaCaT keratinocytes) of 14 µg/mL (≈ 18 µM), a CC50 [1, 3] of 7.6 µg/mL (≈ 9.77 µM) and an IC50 (A. baumannii ATCC 19606) of 0.86 ± 0.25 µM. It also gave an IC50 [2] of 4.3 ± 1 µM, an IC50 (E. coli K91) of 3.8 ± 1.6 µM and an IC50 (E. faecalis MSU#10; E. faecalis MSU#10, one hour in PBS, CFU, ± SEM, read-out: IC50) of 2.8 ± 0.6 µM. For the same compound, the IC50 (E. faecalis V583) was 65 ± 1 µM, the IC50 (MRSA USA300) was 3.9 ± 0.5 µM and the IC50 (P. aeruginosa PA01) was 4.5 ± 2.5 µM.
